Assay results published in patent US20260356826A1, “SALTS OF AMINO QUINAZOLINE DERIVATIVES” (CHIESI FARMACEUTICI S.P.A., priority 2023, published 2026).
In brackets after ≈: the same amount, converted by molar mass. Entries after “also recorded” stand apart in the source; their conditions may differ. Where a name gives a salt, the structure may show the parent alone. Values belong to the compound of their own block, whether it stands above or below them.

Assays:
P2X3 [1] = settings: oral; cited from earlier work
[2] = preclinical models; cited from earlier work
[3] = local delivery; cited from earlier work
P2X3 [4] = settings: disclosed in WO2020239951 A1; cited from earlier work
[5] = Dissolution in Fasted State Simulated Gastric Fluid (FaSSGF), manual experiment, 37 °C; type: physicochemical; settings: for Solubility: 37 °C
Experimental: The dissolution in Fasted State Simulated Gastric Fluid (FaSSGF) of mesylate salt Form 2 of the compound A of Example 2 and esylate salt Form 1 of Example 6 in comparison with the free base Form A and with other salts was tested by means of manual experiment. The medium for simulated oral fluids was FaSSGF obtained from Biorelevant.com Ltd. The experiments were conducted for 60 minutes at 37 °C.
General preparation of salts: in a round-bottomed flask, 200 mg of compound A free base Form A according to Example 1 (0.52 mmol) were suspended in 5 ml of solvent and stirred at RT. Acetone was employed for bromide, ethanedisulfonate, malonate, sulfate, saccharinate, tosylate, orotate, besylate, hemisulfate, phosphate and tartrate salts; water was employed for chloride salt; ethyl formate was employed for maleate, oxalate, gentisicate, fumarate and mandelate salts; tetrahydrofuran was employed for camphorsulfonate and pamoate salts; isopropyl acetate was employed for 4-hydroxybenzoate and methanol for camphorate salt. The corresponding acid was added under stirring in equimolar amount (except for hemisulfate, added in 0.5 molar amount). After 1 hour the crystalline solid was isolated by filtration, washed with the corresponding solvent (2×1 ml) and dried under nitrogen for 2 hours.
The quantification of the dissolved amount was done by LC/UV system at different checkpoints up to 60 minutes. The saturation solution concentration was around 25-30 mg/ml. […] In a second experiment, the quantification was repeated with saturation solution concentration 170 mg/ml for the mesylate salt Form 2 and 100 mg/ml for the esylate salt Form 1. The results are reported in tables 8A, 8B, 8C, 8D and FIG. 28.

[6] = Two-sector dissolution study (FaSSGF then FaSSIF), parachute effect; type: physicochemical; settings: third experiment
Experimental: The dissolution behaviour of mesylate salt Form 2 of compound A was studied in a two-sector model in comparison with free base Form A to evaluate a possible “spring-parachute effect”.
The parachute effect is observable in two-sector dissolution studies. A test compound is incubated with FaSSGF and its concentration is monitored over time. FaSSIF is then added to the solution whilst continuing the monitoring. The period of time in which the test compound remains in solution without or before precipitating refers to the supersaturation time and represents the parachute effect.
The experiment was conducted using DISS Profiler 6 Channel Pion. The free base Form A and mesylate salt Form 2 of compound A were each incubated in 8 ml of FaSSGF (pH 1.6) for 20 minutes at the concentration of 350 mg/250 ml. 16 ml of FaSSIF concentrated 1.5× (pH 6.5) was added with an incubation time of 180 minutes. The resulting target pH should be approximately 5-6. The experiment was conducted at 37 °C. The entire dissolution profile was monitored until the end of the experiment to evaluate a possible parachute effect, its duration and to evaluate the maximum solubility reached after the addition of FaSSIF.
A second experiment was conducted, with an additional step of adjusting the pH to 6.5 after FaSSIF addition. Both free base Form A and mesylate salt Form 2 of compound A were tested.
A third experiment was conducted on esylate salt Form 1 of compound A, using the same protocol of the second experiment, with free base Form A and mesylate salt Form 2 of compound A as controls. The experiment was aimed at evaluating comparatively a possible parachute effect of the esylate salt and its duration. Precipitation of the free base was observed after roughly 20 minutes, while precipitation of the esylate salt and mesylate salt were observed after 30 and 40 minutes respectively.

[7] = Comparative stability at 40 °C and 75% RH at open conditions (UPLC/UV and XRPD); type: physicochemical; settings: 40 °C/75% RH open
Experimental: In a second experiment, approximately 100 mg of compound A mesylate salt Form 2 according to Example 2, free base Form A according to Example 1 and esylate salt Form 1 according to Example 6 were stored in three open amber glass vials covered with filter paper to simulate open conditions. The samples were stored in a stability chamber at 75% RH and 40 °C to compare their stability. At the time points 0, 28, 56, 84 days the corresponding samples were removed from the stability chambers. After conditioning at RT, the samples were analyzed by UPLC/UV and XRPD.

[8] = Dynamic vapour sorption (DVS), hygroscopicity; type: physicochemical; settings: between 20% and 80% RH
Experimental: Moisture sorption/desorption data were collected on a TA Instruments Vapor Sorption Analyzer Q5000SA.
First step: sorption data was collected in the range 40% to 90% relative humidity (RH).
Second Step: desorption, sorption and desorption data were collected over a range of 0% to 90% RH at 10% RH intervals under a nitrogen purge. Samples were not dried prior to analysis. Equilibrium criteria used for analysis were less than 0.100% weight change in 20 minutes, with a maximum equilibration time of 1 hour if the weight criterion was not met. Data were not corrected for the initial moisture content of the samples. NaBr was used as humidity verification.
Moisture sorption/desorption data were also collected on a ProUmid SnS 23 equipped with a 23 autosampler following Method 1.
In the first step sorption data was collected in the range 0% to 90% RH. Samples were not dried prior to analysis.
In the second Step desorption, sorption and desorption data were collected over a range of 0% to 90% (RH) at 10% RH intervals under a nitrogen purge. Data were not corrected for the initial moisture content of the samples.

[9] = second experiment (saturation conc. 170 mg/ml mesylate, 100 mg/ml esylate), 0 min
[10] = first experiment (saturation conc. around 25-30 mg/ml), 5 min

SMILES: COc1cc(C(C)C)c(Oc2cnc(N)nc2N)cc1S(N)(=O)=O [AF-219]
Hypersensitivity of the cough reflex (P2X3 [1]): dramatically reduced

SMILES: Nc1ncnc2c1ncn2[C@@H]1O[C@H](COP(=O)(O)OP(=O)(O)OP(=O)(O)O)[C@@H](O)[C@H]1O [ATP, Adenosine 5-TriPhosphate]
Citric acid-evoked and histamine-evoked cough [2]: enhances citric acid-evoked and histamine-evoked cough | Cough and bronchospasm [3]: initiates cough and bronchospasm

SMILES: COc1cc(-c2ccc(F)cn2)cc2c(N[C@H](C)c3noc(C)n3)ncnc12 [Compound A, (R)-6-(5-fluoropyridin-2-yl)-8-methoxy-N-(1-(5-methyl-1,2,4-oxadiazol-3-yl)ethyl)quinazolin-4-amine]
P2X3 inhibition (P2X3 [4]): potent and selective P2X3 inhibitor

SMILES: COc1cc(-c2ccc(F)cn2)cc2c(N[C@H](C)c3noc(C)n3)ncnc12 [chloride]
Solubility [5, 9]: 0.69 mg/mL | Solubility ([5]; second experiment, 15 min): 8.63 mg/mL | Solubility ([5]; second experiment, 60 min): 10.87 mg/mL

SMILES: COc1cc(-c2ccc(F)cn2)cc2c(N[C@H](C)c3noc(C)n3)ncnc12 [esylate salt Form 1, (R)-6-(5-fluoropyridin-2-yl)-8-methoxy-N-(1-(5-methyl-1,2,4-oxadiazol-3-yl)ethyl)quinazolin-4-amine]
Duration of the parachute effect compared to free base Form A [6]: longer duration of the parachute effect | Time of precipitation ([6]; protocol of the second experiment): 30 min | Stability ([7]; 84 days): surprisingly good stability during stressed storage | % area main peak (LC/UV) ([7]; 0 days): 99.9 % area | Solubility ([5]; first experiment (saturation conc. around 25-30 mg/ml), 5 min, listed as esylate Form 1, 5 min): 24.27 mg/mL | Solubility ([5]; first experiment, 10 min, listed as esylate Form 1, 10 min): 24.74 mg/mL | Solubility ([5]; first experiment, 20 min, listed as esylate Form 1, 20 min): 24.87 mg/mL | Solubility ([5]; first experiment, 40 min, listed as esylate Form 1, 40 min): 24.76 mg/mL | Solubility ([5]; first experiment, 60 min): ≥ 25 mg/mL | Solubility ([5]; first experiment, 60 min, listed as esylate Form 1, 60 min): 24.59 mg/mL | Solubility ([5]; second experiment, 30 min, listed as esylate Form 1, 30 min): 61.30 mg/mL | Solubility ([5]; second experiment, 60 min, listed as esylate Form 1, 60 min): 68.46 mg/mL | Solubility compared to free base Form A ([5]; 60 minutes): consistently higher solubility than the free base Form A during the 60 minutes time | Dissolution ([5]; first experiment, saturation conc. around 25-30 mg/ml): completely dissolved

SMILES: COc1cc(-c2ccc(F)cn2)cc2c(N[C@H](C)c3noc(C)n3)ncnc12 [ethanedisulfonate]
Solubility [5, 9]: 0.49 mg/mL | Solubility ([5]; second experiment, 60 min): 1.06 mg/mL

SMILES: COc1cc(-c2ccc(F)cn2)cc2c(N[C@H](C)c3noc(C)n3)ncnc12 [mandelate]
Solubility [5, 9]: 1.28 mg/mL (≈ 3370 µM) | Solubility ([5]; second experiment, 15 min): 10.88 mg/mL (≈ 28600 µM) | Solubility ([5]; second experiment, 30 min): 9.30 mg/mL (≈ 24400 µM) | Solubility ([5]; second experiment, 60 min): 10.99 mg/mL (≈ 28900 µM)

SMILES: COc1cc(-c2ccc(F)cn2)cc2c(N[C@H](C)c3noc(C)n3)ncnc12 [tosylate]
Solubility [5, 9]: 0.61 mg/mL | Solubility ([5]; second experiment, 15 min): 4.67 mg/mL | Solubility ([5]; second experiment, 30 min): 4.86 mg/mL | Solubility ([5]; second experiment, 60 min): 4.97 mg/mL

Second part, led by results:

Solubility [5, 9]: 1.01 mg/mL | Solubility ([5]; second experiment, 60 min): 21.84 mg/mL
SMILES: COc1cc(-c2ccc(F)cn2)cc2c(N[C@H](C)c3noc(C)n3)ncnc12 [besylate]

Solubility [5, 9]: 0.72 mg/mL | Solubility ([5]; second experiment, 15 min): 2.52 mg/mL | Solubility ([5]; second experiment, 60 min): 2.88 mg/mL
SMILES: COc1cc(-c2ccc(F)cn2)cc2c(N[C@H](C)c3noc(C)n3)ncnc12 [bromide]

Solubility [5, 9]: 0.51 mg/mL | Solubility ([5]; second experiment, 15 min): 10.51 mg/mL | Solubility ([5]; second experiment, 30 min): 11.84 mg/mL | Solubility ([5]; second experiment, 60 min): 13.45 mg/mL
SMILES: COc1cc(-c2ccc(F)cn2)cc2c(N[C@H](C)c3noc(C)n3)ncnc12 [camphorsulfonate]

Solubility [5, 10]: 3.29 mg/mL | Solubility ([5]; first experiment, 10 min): 3.36 mg/mL | Solubility ([5]; first experiment, 20 min): 3.35 mg/mL | Solubility ([5]; first experiment, 40 min): 3.61 mg/mL | Solubility ([5]; first experiment, 60 min): 3.58 mg/mL | Solubility [5, 9]: 0.55 mg/mL | Solubility ([5]; second experiment, 15 min): 4.98 mg/mL | Solubility ([5]; second experiment, 30 min): 5.76 mg/mL | Solubility ([5]; second experiment, 60 min): 5.89 mg/mL
SMILES: COc1cc(-c2ccc(F)cn2)cc2c(N[C@H](C)c3noc(C)n3)ncnc12 [fumarate]

Total water uptake [8]: 0.3%
SMILES: COc1cc(-c2ccc(F)cn2)cc2c(N[C@H](C)c3noc(C)n3)ncnc12 [mesylate salt Form 6, (R)-6-(5-fluoropyridin-2-yl)-8-methoxy-N-(1-(5-methyl-1,2,4-oxadiazol-3-yl)ethyl)quinazolin-4-amine]
Hygroscopicity [8]: No hygroscopicity was noted; also recorded: substantially no hygroscopicity

Solubility [5, 10]: 0.09 mg/mL | Solubility ([5]; first experiment, 10 min): 0.09 mg/mL | Solubility ([5]; first experiment, 20 min): 0.08 mg/mL | Solubility ([5]; first experiment, 40 min): 0.09 mg/mL | Solubility ([5]; first experiment, 60 min): 0.09 mg/mL | Solubility [5, 9]: 1.73 mg/mL | Solubility ([5]; second experiment, 15 min): 10.71 mg/mL | Solubility ([5]; second experiment, 30 min): 11.70 mg/mL | Solubility ([5]; second experiment, 60 min): 13.87 mg/mL
SMILES: COc1cc(-c2ccc(F)cn2)cc2c(N[C@H](C)c3noc(C)n3)ncnc12 [oxalate]

Solubility [5, 9]: 0.03 mg/mL | Solubility ([5]; second experiment, 15 min): 4.89 mg/mL | Solubility ([5]; second experiment, 60 min): 6.52 mg/mL
SMILES: COc1cc(-c2ccc(F)cn2)cc2c(N[C@H](C)c3noc(C)n3)ncnc12 [pamoate]

Solubility [5, 9]: 0.21 mg/mL | Solubility ([5]; second experiment, 15 min): 15.21 mg/mL | Solubility ([5]; second experiment, 30 min): 14.85 mg/mL | Solubility ([5]; second experiment, 60 min): 14.32 mg/mL
SMILES: COc1cc(-c2ccc(F)cn2)cc2c(N[C@H](C)c3noc(C)n3)ncnc12 [phosphate]

Solubility [5, 10]: 0.90 mg/mL (≈ 2370 µM) | Solubility ([5]; first experiment, 10 min): 1.03 mg/mL (≈ 2710 µM) | Solubility ([5]; first experiment, 20 min): 1.09 mg/mL (≈ 2870 µM) | Solubility ([5]; first experiment, 40 min): 1.08 mg/mL (≈ 2840 µM) | Solubility ([5]; first experiment, 60 min): 1.02 mg/mL (≈ 2680 µM) | Solubility [5, 9]: 0.43 mg/mL (≈ 1130 µM) | Solubility ([5]; second experiment, 15 min): 0.80 mg/mL (≈ 2100 µM) | Solubility ([5]; second experiment, 30 min): 0.87 mg/mL (≈ 2290 µM) | Solubility ([5]; second experiment, 60 min): 0.83 mg/mL (≈ 2180 µM)
SMILES: COc1cc(-c2ccc(F)cn2)cc2c(N[C@H](C)c3noc(C)n3)ncnc12 [saccharinate]
